In publication PMC7733993, “Docking Characterization and in vitro Inhibitory Activity of Flavan-3-ols and Dimeric Proanthocyanidins Against the Main Protease Activity of SARS-Cov-2” (Frontiers in Plant Science, 2020):
“Also recorded” adds a separate entry of the source. Like-named read-outs stand apart in the source and are kept apart here.

Biological target: 3CL Protease (M^pro) (SARS-CoV-2) (Severe acute respiratory syndrome coronavirus 2, UniProt P0DTD1)
Assay: biochemical
Assay type: biochemical
Conditions: for inhibitory activity against M^pro: concentration not given; for inhibition at 100 µM: read-out: M^pro activity inhibited compared with the negative control; for inhibitory effects on the activity of Mpro: eight concentrations (0-200 μM) tested, Figure S2; for inhibition of the M^pro activity: range of concentrations from 0 to 500 μM tested

Compound	inhibitory activity against M^pro	inhibition at 100 µM [%]	inhibitory effects on the activity of Mpro	inhibition of the M^pro activity	IC50 [µM]	inhibition at 100 µM (100 μM compound) [%]
O=C(OC1Cc2c(O)cc(O)cc2OC1c1cc(O)c(O)c(O)c1)c1cc(O)c(O)c(O)c1 (single isomer, unassigned; (-)) [EGCG, (–)-epigallocatechin-3-O-gallate]	inhibited	44.4	–	–	–	–
Oc1cc(O)c2c(c1)O[C@H](c1ccc(O)c(O)c1)[C@@H](O)C2 [CA, (+)-catechin]	did not have inhibitory activities; also recorded: No inhibitory activity was detected	–	No inhibitory effects	did not detect	–	–
O=C(O[C@@H]1Cc2c(O)cc(O)cc2O[C@H]1c1ccc(O)c(O)c1)c1cc(O)c(O)c(O)c1 [CAG, (+)-catechin-3-O-gallate]	inhibited	40	–	–	–	–
Oc1cc(O)c2c(c1)O[C@H](c1ccc(O)c(O)c1)[C@H](O)C2 [EC, (–)-epicatechin]	did not have inhibitory activities; also recorded: No inhibitory activity was detected	–	No inhibitory effects	did not detect	–	–
O=C(O[C@@H]1Cc2c(O)cc(O)cc2O[C@@H]1c1ccc(O)c(O)c1)c1cc(O)c(O)c(O)c1 [ECG, (–)-epicatechin-3-O-gallate]	inhibited	40	–	–	5.21 ± 0.5	–
Oc1cc(O)c2c(c1)O[C@H](c1cc(O)c(O)c(O)c1)[C@H](O)C2 [EGC, (–)-epigallocatechin]	did not have inhibitory activities; also recorded: No inhibitory activity was detected	–	No inhibitory effects	did not detect	–	–
Oc1cc(O)c2c(c1)O[C@@H](c1cc(O)c(O)c(O)c1)[C@H](O)C2 [GC, (+)-gallocatechin]	did not have inhibitory activities; also recorded: No inhibitory activity was detected	–	No inhibitory effects	did not detect	–	–
O=C(O[C@@H]1Cc2c(O)cc(O)cc2O[C@H]1c1cc(O)c(O)c(O)c1)c1cc(O)c(O)c(O)c1 [GCG, (–)-gallocatechin-3-O-gallate]	inhibited	50	–	–	–	–
Oc1cc(O)c2c(c1)O[C@@]1(c3ccc(O)c(O)c3)Oc3cc(O)c4c(c3[C@@H]2[C@H]1O)O[C@H](c1ccc(O)c(O)c1)[C@H](O)C4 [PA2, procyanidin A2]	did not have inhibitory activities	–	No inhibitory effects	did not detect	–	–
Oc1cc(O)c2c(c1)O[C@H](c1ccc(O)c(O)c1)[C@H](O)[C@H]2c1c(O)cc(O)c2c1O[C@H](c1ccc(O)c(O)c1)[C@H](O)C2 [PB2, procyanidin B2]	inhibited	–	–	–	75.3 ± 1.29	81.5
Oc1cc(O)c2c(c1)O[C@H](c1ccc(O)c(O)c1)[C@H](O)[C@H]2c1c(O)cc(O)c2c1O[C@H](c1ccc(O)c(O)c1)[C@@H](O)C2 [procyanidin B1]	inhibited	–	–	–	–	–
